Data reported in patent EP0038046A2, “Pharmaceutical amides, and preparation, formulations and use thereof” (THE WELLCOME FOUNDATION LIMITED, priority 1980, dated 1981).
pIC50: −log10 of the molar value. One block for each compound: values may come before it.

Key:
[1] = tested on: mice; assay: Antinociceptive activity, acetic acid writhing assay (modified Siegmund et al.); format: in vivo
Method: The antinociceptive activity of compound 1 was tested in vivo in mice using the following method:-
A modification of the writhing assay of Siegmund et al (Proc. Soc. exp. Biol. Med., 1957, 95: 727-731) was used. Compound 1 dissolved in saline, or saline alone, was administered intracerebroventricularly (i.c.v.) to groups of 5 mice at the doses shown below.-1 hour or 2 hours later, the mice were injected i.p. with the nonciceptive stimulus, i.e. 0.6% (v/v) aqueous acetic acid. […] An antinociceptive compound will reduce the number of writhes and this may be expressed as a percentage inhibition: [formula]

[2] = molecular target: T1, enkephalinase Al (Rattus norvegicus, UniProt P07861); assay: Enkephalinase-inhibiting activity, method A (purified enkephalinase A1, 3H-leucine enkephalin hydrolysis to 3H-TGG, TLC separation); format: biochemical, Rats; conditions: leucine enkephalin 5 x 10^-5M, 30°C, IC50 determined graphically, read-out: Approx IC50
T1 construct: the solubilised enzymes contained in the supernatant separated by DEAE- cellulose column chromatography; Enkephalinase Al was further purified by Sephacryl S.300 chromatography; from tissue; host or cells: rat striatum (Triton X-100 solubilised membrane pellet, DEAE-cellulose and Sephacryl S.300 chromatography)
T1 sequence (P07861 1-750): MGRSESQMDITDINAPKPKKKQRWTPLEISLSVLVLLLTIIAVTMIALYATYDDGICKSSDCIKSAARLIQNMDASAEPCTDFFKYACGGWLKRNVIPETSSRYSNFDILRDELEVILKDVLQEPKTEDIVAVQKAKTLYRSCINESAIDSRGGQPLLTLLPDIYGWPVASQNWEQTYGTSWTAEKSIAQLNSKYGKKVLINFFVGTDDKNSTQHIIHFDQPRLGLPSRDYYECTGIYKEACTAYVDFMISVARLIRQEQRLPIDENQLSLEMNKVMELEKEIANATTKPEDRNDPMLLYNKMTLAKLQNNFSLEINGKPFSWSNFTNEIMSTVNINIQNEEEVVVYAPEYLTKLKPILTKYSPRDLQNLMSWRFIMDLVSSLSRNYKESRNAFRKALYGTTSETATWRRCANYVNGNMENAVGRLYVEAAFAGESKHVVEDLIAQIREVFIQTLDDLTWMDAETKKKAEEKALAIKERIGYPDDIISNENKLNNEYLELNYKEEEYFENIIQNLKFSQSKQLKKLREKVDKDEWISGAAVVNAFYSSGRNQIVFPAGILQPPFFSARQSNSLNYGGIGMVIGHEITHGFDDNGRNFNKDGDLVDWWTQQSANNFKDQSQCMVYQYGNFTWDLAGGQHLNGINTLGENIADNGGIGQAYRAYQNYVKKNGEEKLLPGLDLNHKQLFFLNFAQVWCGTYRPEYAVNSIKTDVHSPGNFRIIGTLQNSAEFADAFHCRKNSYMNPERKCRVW

[3] = molecular target: T2, enkephalinase (Rattus norvegicus, UniProt P07861); assay: Enkephalinase-inhibiting activity, method B (striatal membrane homogenate, 3H-leucine enkephalin hydrolysis to 3H-TGG); format: biochemical, rats; conditions: method B (figures marked with an asterisk), 3H-leucine enkephalin 3 x 10^-8M, 22°C, only approximate due to catabolism of 3H-TGG by aminopeptidase(s), read-out: Approx IC50
T2 construct: from tissue; host or cells: rat striatum, crude washed membrane pellet (47,000 g)
T2 sequence (P07861 1-750): T1 sequence (P07861 1-750)
Method: B) The following method is-a modification of the method of Malfroy et al; Nature Vol..276, 30 November 1978 pages 523 to 526. Three rats were killed by decapitation and the striata dissected out on ice. The pooled tissues were homogenised in ice-cold Tris/hydrochloric acid buffer (50 mM, pH 7.60, 10.0 ml) and centrifuged (1000 g, 10 mins). The resulting supernatant was recentrifuged (47,000 g, 20 mins) and the second supernatant discarded. The pellet was washed twice and finally resuspended in buffer as before (9.6 ml) and aliquots (1.9 ml) of this suspension incubated at 22°C. […] At the completion of incubation N hydrochloric acid (50 μl) was added, the mixture heated in a boiling water bath for 15 mins and precipitated material then removed by centrifugation (1500 g, 10 mins). Separation of • (a) unchanged ^3H-leucine enkephalin, • ([…]-OH (^3H-TGG), generated from (a) by enkephalinase, and • (c) ^3H-Tyr-OH, generated from both (a) and (b) by aminopeptidase(s) in the supernatant and the subsequent procedure was carried out as described in method A) above.

pIC50 [2]: 4.77
Compound: CC(C)C[C@H](NC(=O)C(CC(=O)O)Cc1ccccc1)C(=O)O (mixture of isomers) [compound 1, (2S)-2-[(2RS)-2-Benzyl-3-carboxypropanamido]-4-methylpentanoic acid]
% inhibition of writhes ([1]; 5 µg mouse i.c.v., 1h prior to acetic acid): slight potentiation
% inhibition of writhes ([1]; 5 µg mouse i.c.v., 2h prior to acetic acid): 36%
% inhibition of writhes ([1]; 10 µg mouse i.c.v., 1h prior to acetic acid): 28%
% inhibition of writhes ([1]; 10 µg mouse i.c.v., 2h prior to acetic acid): 48%
% inhibition of writhes ([1]; 20 µg mouse i.c.v., 1h prior to acetic acid): 32%
% inhibition of writhes ([1]; 20 µg mouse i.c.v., 2h prior to acetic acid): 44%
% inhibition of writhes ([1]; 40 µg mouse i.c.v., 1h prior to acetic acid): 75%
% inhibition of writhes ([1]; 40 µg mouse i.c.v., 2h prior to acetic acid): 84%

pIC50 [2]: 6.48
Compound: CC(C)C[C@H](NC(=O)C(CS)Cc1ccccc1)C(N)=O (mixture of isomers) [compound 9, (2S)-2-[(2RS)-2-Benzyl-3-mercaptopropanamido]-4-methylpentanamide]

pIC50 [2]: 4.72
Compound: CSCC[C@@H](NC(=O)C(CC(=O)O)Cc1ccccc1)C(=O)O (mixture of isomers) [compound 12, (2R)-2-[(2RS)-2-Benzyl-3-carboxypropanamido]-4-(methylthio)butanoic acid]

pIC50 [2]: 5.37
Compound: CSCC[C@H](NC(=O)C(CC(=O)O)Cc1ccccc1)C(=O)O (mixture of isomers) [compound 13, (2S)-2-[(2RS)-2-Benzyl-3-carboxypropanamido]-4-(methylthio)butanoic acid]

pIC50 [2]: 2.52
Compound: C[C@H](CS)C(=O)N1CCC[C@H]1C(=O)O [Captopril, 1-(D-3-mercapto-2-methylpropanoyl)-L-proline (R,S), reference compound]

pIC50 [3]: 5.14
Compound: CC(C)C[C@H](NC(=O)[C@@H](CC(=O)O)Cc1ccccc1)C(=O)O [compound 2, (2S)-2-[(2R)-2-benzyl-3-carboxypropanamido]-4-methylpentanoic acid]

pIC50 [3]: 5.40
Compound: CC(C)C[C@H](NC(=O)[C@H](CC(=O)O)Cc1ccccc1)C(=O)O [compound 3, (2S)-2-[(2S)-2-benzyl-3-carboxypropanamido]-4-methylpentanoic acid]

pIC50 [2]: < 4.00
Compound: CC(C)C[C@H](NC(=O)[C@@H](CC(=O)O)Cc1ccccc1)C(N)=O [compound 4, (2S)-2-[(2R)-2-Eenzyl-3-carboxypropanamido]-4-methylpentanamide]

pIC50 [2]: < 3.30
Compound: CC(C)C[C@@H](NC(=O)C(CC(=O)O)Cc1ccccc1)C(=O)O (stereo partly drawn) [compound 11, (2R)-2-[(2RS)-2-Benzyl-3-carboxypropanamido,]-4-methylpentanoic acid]

pIC50 [2]: 4.19
Compound: CC(C)C[C@H](NC(=O)C(CC(=O)O)Cc1ccc([N+](=O)[O-])cc1)C(=O)O (stereo partly drawn) [compound 14]

pIC50 [2]: 6.82
Compound: CSCC[C@@H](NC(=O)C(CS)Cc1ccccc1)C(=O)O (stereo partly drawn) [compound 15, (2R)-2-[2RS-2-Benzyl-3-mercaptopropanamido]-4-(methylthio)-butanoic acid]

pIC50 [3]: < 4.00
Compound: (2$)-2-[(2R)-2-Benzyl-3-carboxypropanamido]-4-methylpentanamide [compound 10]

Compound: (2S)-2-[(2RS)-3-Acetylthio-2-benzylpropanamido]-4-methylpentanoic acid, dicyclohexylamine salt [compound 6]
pIC50 [2]: 4.96
